Assay results taken from ChEMBL document CHEMBL3885881, “DrugMatrix”.

Species: Rattus norvegicus
Assay: DrugMatrix - Regimen: Daily Repeat
Assay type: toxicity, organism-based, Sprague-Dawley
Set-up: regimen Daily Repeat, gender Male, age 6-8 weeks
Settings: in vivo, po, route oral GAVAGE, vehicle 100 % WATER; for ABSOLUTE BASOPHIL / ABSOLUTE EOSINOPHIL / ABSOLUTE LYMPHOCYTE / ABSOLUTE MONOCYTE / ABSOLUTE SEGMENTED NEUTROPHIL / BASOPHIL / EOSINOPHIL / ERYTHROCYTE COUNT / HEMATOCRIT / HEMOGLOBIN / LEUKOCYTE COUNT / LYMPHOCYTE / MEAN CORPUSCULAR HEMOGLOBIN / MEAN CORPUSCULAR HEMOGLOBIN CONCENTRATION / MONOCYTE / NEUTROPHIL / NUCLEATED RED BLOOD CELLS / PLATELET COUNT: tissue Blood; for ALANINE AMINOTRANSFERASE / ALBUMIN / ALKALINE PHOSPHATASE / ASPARTATE AMINOTRANSFERASE / BLOOD UREA NITROGEN / CARBON DIOXIDE / CHLORIDE / CHOLESTEROL / CREATINE PHOSPHOKINASE / CREATININE / GLUCOSE / LACTATE DEHYDROGENASE / LIPASE / PHOSPHORUS / POTASSIUM / SODIUM / TOTAL BILIRUBIN / TOTAL PROTEIN / URIC ACID: tissue Plasma
[1] = 0 mg/kg, 72 h, dose level Control, time 3 day
[2] = 0 mg/kg, 120 h, dose level Control, time 5 day
[3] = 50 mg/kg, 72 h, dose level Low, time 3 day

For `C[C@H](CS)C(=O)N1CCC[C@H]1C(=O)O` [CAPTOPRIL], the “ABSOLUTE BASOPHIL” value [1] was 0 CELLS/uL, the “ABSOLUTE EOSINOPHIL” value [1] was 0 CELLS/uL and the “ABSOLUTE LYMPHOCYTE” value [1] was 10386.33 CELLS/uL. For the same molecule, the “ABSOLUTE MONOCYTE” value [1] was 88.5 CELLS/uL, the “ABSOLUTE SEGMENTED NEUTROPHIL” value [1] was 1008.5 CELLS/uL and the BASOPHIL [1] was 0%. The EOSINOPHIL [1] was 0%, the “ERYTHROCYTE COUNT” value [1] was 5.16 x10E6/uL and the HEMATOCRIT [1] was 32.43%. For the same molecule, the HEMOGLOBIN [1] was 12.98 G/DL, the “LEUKOCYTE COUNT” value [1] was 11.48 x10E3/uL and the LYMPHOCYTE [1] was 92.33%. The “MEAN CORPUSCULAR HEMOGLOBIN” value [1] was 25.23 pg, the “MEAN CORPUSCULAR HEMOGLOBIN CONCENTRATION” value [1] was 40.08 G/DL and the MONOCYTE [1] was 0.67%. The NEUTROPHIL [1] was 7%, the “NUCLEATED RED BLOOD CELLS” value [1] was 0 /100WBC and the “PLATELET COUNT” value [1] was 1016.67 x10E3/uL. For the same molecule, the “ALANINE AMINOTRANSFERASE” value [1] was 62.17 u/L, the ALBUMIN [1] was 3.95 G/DL and the “ALKALINE PHOSPHATASE” value [1] was 363.5 u/L. For the same molecule, the “ASPARTATE AMINOTRANSFERASE” value [1] was 118 u/L, the “BLOOD UREA NITROGEN” value [1] was 14.5 mg/dL and the “CARBON DIOXIDE” value [1] was 22.83 mmol/L. The CHLORIDE [1] was 100.67 MEQ/L, the CHOLESTEROL [1] was 66 mg/dL and the “CREATINE PHOSPHOKINASE” value [1] was 1308.83 u/L. For the same molecule, the CREATININE [1] was 0.22 mg/dL, the GLUCOSE [1] was 187.5 mg/dL and the “LACTATE DEHYDROGENASE” value [1] was 380.17 u/L. It also gave an LIPASE [1] of 16.17 u/L, a PHOSPHORUS [1] of 14.27 mg/dL and a POTASSIUM [1] of 6.8 MEQ/L. For the same molecule, the SODIUM [1] was 142.53 MEQ/L, the “TOTAL BILIRUBIN” value [1] was 0.2 mg/dL and the “TOTAL PROTEIN” value [1] was 5.68 G/DL. The “URIC ACID” value [1] was 2.87 mg/dL, the “ABSOLUTE BASOPHIL” value [2] was 0 CELLS/uL and the “ABSOLUTE EOSINOPHIL” value [2] was 80 CELLS/uL. The “ABSOLUTE LYMPHOCYTE” value [2] was 13301.33 CELLS/uL, the “ABSOLUTE MONOCYTE” value [2] was 180.83 CELLS/uL and the “ABSOLUTE SEGMENTED NEUTROPHIL” value [2] was 1187.83 CELLS/uL. The BASOPHIL [2] was 0%, the EOSINOPHIL [2] was 0.5% and the “ERYTHROCYTE COUNT” value [2] was 5.54 x10E6/uL. For the same molecule, the HEMATOCRIT [2] was 35.65%, the HEMOGLOBIN [2] was 14.22 G/DL and the “LEUKOCYTE COUNT” value [2] was 14.75 x10E3/uL. For the same molecule, the LYMPHOCYTE [2] was 90.67%, the “MEAN CORPUSCULAR HEMOGLOBIN” value [2] was 25.65 pg and the “MEAN CORPUSCULAR HEMOGLOBIN CONCENTRATION” value [2] was 39.88 G/DL. The MONOCYTE [2] was 1%, the NEUTROPHIL [2] was 7.83% and the “NUCLEATED RED BLOOD CELLS” value [2] was 0.17 /100WBC. For the same molecule, the “PLATELET COUNT” value [2] was 1285.33 x10E3/uL, the “ALANINE AMINOTRANSFERASE” value [2] was 51.67 u/L and the ALBUMIN [2] was 4.08 G/DL. For the same molecule, the “ALKALINE PHOSPHATASE” value [2] was 391.5 u/L, the “ASPARTATE AMINOTRANSFERASE” value [2] was 99.5 u/L and the “BLOOD UREA NITROGEN” value [2] was 15.5 mg/dL. The “CARBON DIOXIDE” value [2] was 28.33 mmol/L, the CHLORIDE [2] was 101.83 MEQ/L and the CHOLESTEROL [2] was 67.83 mg/dL. The “CREATINE PHOSPHOKINASE” value [2] was 771.33 u/L, the CREATININE [2] was 0.23 mg/dL and the GLUCOSE [2] was 156.5 mg/dL. The “LACTATE DEHYDROGENASE” value [2] was 544.33 u/L, the LIPASE [2] was 10.17 u/L and the PHOSPHORUS [2] was 12.03 mg/dL. The POTASSIUM [2] was 6.81 MEQ/L, the SODIUM [2] was 144.13 MEQ/L and the “TOTAL BILIRUBIN” value [2] was 0.22 mg/dL. The “TOTAL PROTEIN” value [2] was 6 G/DL, the “URIC ACID” value [2] was 2.18 mg/dL and the “ABSOLUTE BASOPHIL” value [3] was 0 CELLS/uL. The “ABSOLUTE EOSINOPHIL” value [3] was 0 CELLS/uL, the “ABSOLUTE LYMPHOCYTE” value [3] was 12527.33 CELLS/uL and the “ABSOLUTE MONOCYTE” value [3] was 193.67 CELLS/uL. For the same molecule, the “ABSOLUTE SEGMENTED NEUTROPHIL” value [3] was 645.67 CELLS/uL, the BASOPHIL [3] was 0% and the EOSINOPHIL [3] was 0%. The “ERYTHROCYTE COUNT” value [3] was 5.11 x10E6/uL, the HEMATOCRIT [3] was 32.47% and the HEMOGLOBIN [3] was 12.77 G/DL. The “LEUKOCYTE COUNT” value [3] was 13.37 x10E3/uL, the LYMPHOCYTE [3] was 93.67% and the “MEAN CORPUSCULAR HEMOGLOBIN” value [3] was 25 pg. For the same molecule, the “MEAN CORPUSCULAR HEMOGLOBIN CONCENTRATION” value [3] was 39.33 G/DL, the MONOCYTE [3] was 1.33% and the NEUTROPHIL [3] was 5%. The “NUCLEATED RED BLOOD CELLS” value [3] was 0 /100WBC, the “PLATELET COUNT” value [3] was 1185.33 x10E3/uL and the “ALANINE AMINOTRANSFERASE” value [3] was 55.33 u/L. The ALBUMIN [3] was 4.23 G/DL, the “ALKALINE PHOSPHATASE” value [3] was 396.33 u/L and the “ASPARTATE AMINOTRANSFERASE” value [3] was 89.33 u/L. The “BLOOD UREA NITROGEN” value [3] was 15.33 mg/dL, the “CARBON DIOXIDE” value [3] was 24.67 mmol/L and the CHLORIDE [3] was 99.67 MEQ/L. For the same molecule, the CHOLESTEROL [3] was 77.67 mg/dL, the “CREATINE PHOSPHOKINASE” value [3] was 344.67 u/L and the CREATININE [3] was 0.22 mg/dL. For the same molecule, the GLUCOSE [3] was 154.67 mg/dL, the “LACTATE DEHYDROGENASE” value [3] was 230.67 u/L and the LIPASE [3] was 11.67 u/L. The PHOSPHORUS [3] was 12.57 mg/dL, the POTASSIUM [3] was 6.98 MEQ/L and the SODIUM [3] was 141.83 MEQ/L. For the same molecule, the “TOTAL BILIRUBIN” value [3] was 0.2 mg/dL and the “TOTAL PROTEIN” value [3] was 5.87 G/DL.
